Test results taken from ChEMBL document CHEMBL1201862, “PubChem BioAssay data set” (2004).
Several values for one entry are separate records, joined by “and”; a condition that tells them apart may be missing. Identical values can stand only once. Activity calls are given as the source filed them.

Tests used:
Cytochrome P450 2D6 = Cytochrome P450 2D6 (Homo sapiens, UniProt P10635);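 also: CYP2D6 member of a cytochrome P450 panel assay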
Cytochrome P450 1A2 = target: T1, Cytochrome P450 1A2 (Homo sapiens, UniProt P05177);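 also: PubChem cytochrome P450 panel assay, CYP1A2 panel member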
T1 sequence (P05177 whole entry): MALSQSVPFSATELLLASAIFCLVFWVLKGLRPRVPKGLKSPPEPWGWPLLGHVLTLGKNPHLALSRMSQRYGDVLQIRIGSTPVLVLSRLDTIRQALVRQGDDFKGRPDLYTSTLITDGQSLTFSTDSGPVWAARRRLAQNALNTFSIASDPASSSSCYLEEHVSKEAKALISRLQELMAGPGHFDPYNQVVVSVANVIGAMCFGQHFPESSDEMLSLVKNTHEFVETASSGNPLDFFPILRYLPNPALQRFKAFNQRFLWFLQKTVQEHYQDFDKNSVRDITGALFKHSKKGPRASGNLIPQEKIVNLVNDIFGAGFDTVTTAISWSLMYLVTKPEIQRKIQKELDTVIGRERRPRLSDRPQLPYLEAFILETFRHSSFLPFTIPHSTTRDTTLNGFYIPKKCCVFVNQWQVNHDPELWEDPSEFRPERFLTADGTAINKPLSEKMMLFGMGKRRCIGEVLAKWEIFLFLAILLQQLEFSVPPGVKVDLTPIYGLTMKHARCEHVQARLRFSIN

[1] = target: T2, Replicative DNA helicase DnaB (Mycobacterium tuberculosis, UniProt P9WMR3); experiment: DnaB intein splicing inhibitors, dose response, biochemical, cell-free fluorescence (AID 449749); format: functional
T2 sequence (P9WMR3 whole entry): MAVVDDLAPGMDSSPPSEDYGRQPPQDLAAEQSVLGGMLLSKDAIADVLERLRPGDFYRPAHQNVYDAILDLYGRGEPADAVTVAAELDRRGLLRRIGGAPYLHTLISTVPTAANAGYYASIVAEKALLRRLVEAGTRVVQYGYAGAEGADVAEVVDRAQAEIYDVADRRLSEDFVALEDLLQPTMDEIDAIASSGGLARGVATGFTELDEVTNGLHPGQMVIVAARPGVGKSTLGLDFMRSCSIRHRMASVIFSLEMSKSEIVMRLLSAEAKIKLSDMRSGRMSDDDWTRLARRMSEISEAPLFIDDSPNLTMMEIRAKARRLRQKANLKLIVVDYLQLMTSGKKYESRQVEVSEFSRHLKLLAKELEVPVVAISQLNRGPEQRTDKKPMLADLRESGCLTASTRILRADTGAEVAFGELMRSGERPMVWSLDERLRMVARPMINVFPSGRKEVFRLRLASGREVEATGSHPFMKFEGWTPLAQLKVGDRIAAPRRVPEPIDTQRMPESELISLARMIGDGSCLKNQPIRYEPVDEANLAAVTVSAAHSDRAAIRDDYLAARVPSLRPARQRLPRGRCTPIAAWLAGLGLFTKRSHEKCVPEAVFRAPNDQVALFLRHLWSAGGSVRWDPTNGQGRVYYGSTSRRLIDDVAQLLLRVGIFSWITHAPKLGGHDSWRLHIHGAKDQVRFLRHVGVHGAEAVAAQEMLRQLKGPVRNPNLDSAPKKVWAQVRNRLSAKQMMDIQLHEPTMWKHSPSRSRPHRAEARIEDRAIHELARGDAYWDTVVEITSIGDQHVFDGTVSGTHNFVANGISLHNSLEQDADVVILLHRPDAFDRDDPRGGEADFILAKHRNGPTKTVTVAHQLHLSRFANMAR

Protein RecA = target: T3, Protein RecA (Mycobacterium tuberculosis, UniProt P9WHJ3); experiment: Fluorescence Cell-Free Homogeneous Dose Retest to Identify Inhibitors of RecA-Intein Splicing Activity. [Related pubchem assays (depositor defined):AID2097, AID2223, AID489010, AID492950]; format: functional
T3 sequence (P9WHJ3 whole entry): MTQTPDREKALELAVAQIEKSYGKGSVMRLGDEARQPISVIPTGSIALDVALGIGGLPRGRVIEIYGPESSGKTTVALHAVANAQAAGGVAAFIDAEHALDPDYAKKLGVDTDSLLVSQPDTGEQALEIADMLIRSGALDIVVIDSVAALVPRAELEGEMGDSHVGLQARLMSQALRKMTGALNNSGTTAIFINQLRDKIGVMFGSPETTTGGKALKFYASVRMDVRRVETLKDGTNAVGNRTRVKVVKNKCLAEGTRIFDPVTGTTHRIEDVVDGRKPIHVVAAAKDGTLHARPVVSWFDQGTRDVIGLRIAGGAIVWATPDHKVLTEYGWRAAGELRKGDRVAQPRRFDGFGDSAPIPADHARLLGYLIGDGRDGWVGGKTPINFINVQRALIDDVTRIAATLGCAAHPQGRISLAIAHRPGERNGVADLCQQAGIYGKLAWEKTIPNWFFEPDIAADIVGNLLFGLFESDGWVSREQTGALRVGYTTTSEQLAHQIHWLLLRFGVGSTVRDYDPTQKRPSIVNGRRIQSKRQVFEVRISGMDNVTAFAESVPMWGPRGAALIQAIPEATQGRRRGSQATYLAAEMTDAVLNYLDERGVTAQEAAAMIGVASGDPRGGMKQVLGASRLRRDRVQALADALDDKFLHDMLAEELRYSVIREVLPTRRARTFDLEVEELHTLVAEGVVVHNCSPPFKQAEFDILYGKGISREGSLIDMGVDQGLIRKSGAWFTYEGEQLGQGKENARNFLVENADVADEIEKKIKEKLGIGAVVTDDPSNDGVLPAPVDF

Genome polyprotein = Genome polyprotein (dengue virus type 2, UniProt P29990); experiment: Dengue-2 NS5 methyltransferase inhibitors, primary screen, biochemical, confirmation dose response (AID 588689); format: functional
[2] = target: T4, Polyadenylate-binding protein 1 (Homo sapiens, UniProt P11940); experiment: PABP1 MLLE–PAM2 interaction inhibitors, dose response, miRNA deadenylation inhibitor project, biochemical, fluorescence polarization, Cy5-PAM2 peptide, secondary (AID 602260); format: functional; details: read-out: IC50_Mean
[3] = target: T4, Polyadenylate-binding protein 1; experiment: PABP1 MLLE–PAM2 binding inhibitor potency, dose response, biochemical, fluorescence polarization, FITC-PAM2 peptide (AID 602259); format: functional; details: read-out: IC50_Mean
[4] = inhibitors of firefly luciferase expression or activity, dose response, H4 neuroglioma cells, luminescence (AID 1990); format: functional, cell-based
[5] = Luminescence Cell-Based Dose Response HTS to Identify Inhibitors of 5'UTR Stem-Loop Driven Prion Protein mRNA Translation in H4 Neuroglioblastoma Cells. [Related pubchem assays: 1827 (Project Summary), 1813 (Primary HTS)]; format: functional
[6] = inhibitors of SNCA 5'UTR-driven reporter translation, confirmation, H4 neuroglioma cells, luminescence (AID 1988); format: functional, cell-based
[7] = Luminescence Cell-Based Dose Response HTS to Identify Activators of Luciferase Translation or Activity in H4 […] Cells. [Related pubchem assays: 1829 (Project Summary), 1814 (Primary HTS)]; format: functional
H4 = experiment: Luminescence Cell-Based Dose Response HTS to Identify Activators of 5'UTR Stem-Loop Driven Prion Protein mRNA Translation in H4 Neuroglioblastoma Cells. [Related pubchem assays: 1829 (Project Summary), 1814 (Primary HTS)]; format: functional; details: Homo sapiens
Cytochrome P450 2C9 = Cytochrome P450 2C9 (Homo sapiens, UniProt P11712)
H9c2 = experiment: cells; format: functional, cell-based; details: Rattus norvegicus, H9c2, Myocardium;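 also: confirmatory concentration-response retest of ultra-high-throughput screening hits for modulation of myocardial damage; cell death induced by hydrogen peroxide oxidative stress; compound pretreatment for 60 min then peroxide exposure for 2 h; potency is for protecting the cells against peroxide damage rather than for killing them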
Cytochrome P450 2C19 = Cytochrome P450 2C19 (Homo sapiens, UniProt P33261); experiment: Cytochrome panel assay with activity outcomes. Panel member name: p450-cyp2c19 Compounds with AC50 equal or less than 10 uM are considered active; format: functional; details: read-out: AC50
[8] = target: T5, Heat shock factor protein 1 (Mus musculus, UniProt P38532); experiment: inhibition of MG132-induced HSE-luciferase signal, confirmation, cell-based, NIH3T3, luminescence, dose retest (AID 2382); format: functional;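 also: NIH3T3 fibroblasts with HSF1-driven luciferase reporter stressed by proteasome inhibitor MG132; luminescence from HSF1-driven luciferase expression after 8 hours of MG132 stress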
T5 sequence (P38532 whole entry): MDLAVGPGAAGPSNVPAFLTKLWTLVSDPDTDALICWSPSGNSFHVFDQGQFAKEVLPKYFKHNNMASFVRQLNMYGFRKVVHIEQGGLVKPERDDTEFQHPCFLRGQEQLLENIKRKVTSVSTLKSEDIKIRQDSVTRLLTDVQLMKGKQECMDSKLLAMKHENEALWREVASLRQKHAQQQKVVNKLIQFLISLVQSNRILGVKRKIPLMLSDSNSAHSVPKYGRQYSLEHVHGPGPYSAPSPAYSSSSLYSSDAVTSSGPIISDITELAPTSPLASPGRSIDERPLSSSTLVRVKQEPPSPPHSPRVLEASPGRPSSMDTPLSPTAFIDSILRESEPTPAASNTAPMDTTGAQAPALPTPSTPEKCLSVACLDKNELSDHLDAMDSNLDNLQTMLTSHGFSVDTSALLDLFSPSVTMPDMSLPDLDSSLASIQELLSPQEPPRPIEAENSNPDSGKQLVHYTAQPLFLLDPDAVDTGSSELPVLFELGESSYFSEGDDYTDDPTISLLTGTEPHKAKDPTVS

INS1 = experiment: beta cell apoptosis inhibitors, cytokine rescue, dose response, luminescence, retest (AID 449756); format: functional, cell-based; details: Rattus norvegicus;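 also: cell death triggered by IL-1 beta plus TNF-alpha plus IFN-gamma mixture; protective hits raise ATP signal compared with cytokine alone wells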
Cytochrome P450 3A4 = Cytochrome P450 3A4 (Homo sapiens, UniProt P08684);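 also: CYP3A4 tested as one member of a cytochrome P450 panel screen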

| Compound | AC50 (Cytochrome P450 2D6) | IC50 [2] | IC50 [3] | also measured |
| --- | --- | --- | --- | --- |
| COC(=O)C1=C(C)OC(N)=C(C#N)C1C1CCCCC1 (configuration not stated) | 31.6 µM (inconclusive) |  |  | AC50 (Cytochrome P450 1A2): 15.8 µM (inconclusive) |
| CC1=NN(c2ccccc2)C(=O)/C1=C/c1ccc(Cl)cc1 |  |  |  | AC50 [1]: 2.15 µM (active); EC50 (Protein RecA): 1.35 µM (active); IC50 (Genome polyprotein): 38.6 µM (active) |
| S=C(Nc1ccc(Br)cc1Cl)Nn1cnnc1 |  | > 66 µM (inactive) | > 66 µM (inactive) |  |
| Cc1ccc(NC(=O)C2(NC(=O)c3cccc(N4C(=O)CSC4c4ccccc4)c3)CCCCC2)cc1 (configuration not stated) | 1.12 µM (inconclusive) |  |  | EC50 [4]: > 120 µM (not active); EC50 [5]: > 120 µM (not active); EC50 [6]: > 120 µM (not active) |
| COC(=O)CCC(=O)OC1(C)C(=O)C2=CN(Cc3ccccc3)C(c3ccc(OC)cc3)=CC2=C(Br)C1=O (configuration not stated) |  |  |  | IC50 (Genome polyprotein): 39.1 µM (active) |
| COc1ccc(-c2cc(C(=O)N3CCN(c4ccccn4)CC3)c3ccccc3n2)cc1 |  |  |  | EC50 [7]: > 120 µM (not active); EC50 (H4): 7.36 µM (active) |
| O=C1/C(=C/c2cccnc2)SC(=S)N1c1ccc(F)cc1 |  | > 66 µM (inactive) | > 66 µM (inactive) |  |
| O=C(/C=C\c1ccc(O)c(O)c1)OCCc1ccccc1 | 39.8 µM (inconclusive) |  |  | AC50 (Cytochrome P450 2C9): 39.8 µM (inconclusive) |
| O=C1c2ccccc2NC(c2ccc(Cl)cc2Cl)N1O (configuration not stated) | 14.1 µM (inconclusive) |  |  | IC50 (H9c2): > 79 µM (inactive); AC50 (Cytochrome P450 2C9): 25.1 µM (inconclusive) |
| COc1cc(C(=S)N2CCOCC2)cc(OC)c1OS(=O)(=O)c1ccc(C)cc1 |  | > 66 µM (inactive) | > 66 µM (inactive) |  |
| COc1cc(C2c3sc(O)nc3SC3C(=O)N(c4ccc(Br)cc4)C(=O)C32)ccc1O (configuration not stated) |  | > 66 µM (inactive) | > 66 µM (inactive) |  |
| CCCCC#Cc1nc(NC)c2ncn([C@@H]3O[C@@H](CO)[C@H](O)[C@H]3O)c2n1 | 31.6 µM (inconclusive) |  |  | AC50 (Cytochrome P450 2C19): 3.16 µM (inconclusive); AC50 (Cytochrome P450 1A2): 31.6 µM (inconclusive) |
| Cn1nc([N+](=O)[O-])c(C(C#N)c2nc3ccccc3n2C)c(Cl)c1=O (configuration not stated) |  | > 66 µM (inactive) | 30.8 µM (inactive) | IC50 (Genome polyprotein): 16.7 µM (active) |
| COc1ccc2c([N+](=O)[O-])c(Cl)[nH]c2c1 |  |  |  | IC50 (Genome polyprotein): > 100 µM (active) |
| CC(=O)c1c(C)cc(C)c(CSc2nc(C)cc(=O)[nH]2)c1C |  | > 66 µM (inactive) | > 66 µM (inactive) |  |
| O=C(CNC(=O)C1CCCCC1)NC1=NCCS1 |  | > 66 µM (inactive) | > 66 µM (inactive) | EC50 [8]: > 195 µM (not active) |
| O=C(CSc1nnc(-c2cccnc2)o1)Nc1ccccc1F |  | > 66 µM (inactive) | > 66 µM (inactive) |  |
| COc1ccc(CONS(=O)(=O)c2ccc(NC(C)=O)cc2)cc1Cl | 3.55 µM (inconclusive) |  |  |  |
| COc1c2c(c3c(c1OC)c(=O)c1ccccc1n3C)OCO2 |  | > 66 µM (inactive) | 41.7 µM (inactive) |  |
| CCOC(=O)C1=C(O)C(=O)N(Cc2ccccc2)C1 | 31.6 µM (inconclusive) |  |  |  |
| O=C(N/N=C/c1cnc(N2CCCCC2)s1)c1ccc(C(F)(F)F)cc1 |  |  |  | EC50 [4]: 12 µM (active); EC50 [5]: > 120 µM (not active); EC50 [6]: 9.6 µM (active); AC50 (INS1): 4.54 µM (active) |
| C(=N\N(c1ccccc1)c1ccccc1)/c1ccc2c(c1)OCO2 | 10 µM (inconclusive) |  |  | AC50 (Cytochrome P450 2C19): 2.51 µM (inconclusive); AC50 (Cytochrome P450 3A4): 15.8 µM (inconclusive); AC50 (Cytochrome P450 2C9): 8.91 µM (inconclusive) |
| OCCN1CCN(CC/C=C2\c3ccccc3Sc3ccc(C(F)(F)F)cc32)CC1 [E-FLUPENTIXOL] | 6.31 µM (inconclusive) and 31.6 µM (inconclusive) |  |  |  |
